Experimental data taken from patent US12016942B2, “Potassium hydrogen salts of alkylhydroxamates and compositions comprising the same” (Inolex Investment Corporation, priority 2021, dated 2024).

Tests used:
[1] = cited from earlier work
[2] = Solution pH of alkali metal salts of caprylhydroxamic acid in deionized water; format: physicochemical; conditions: for Solution pH Difference: NaCH minus KH(CH)2
Text: In some cases, the pH adjuster brings the aqueous formulation including potassium hydrogen alkylhydroxamate salts to a lower pH value than if no pH adjuster were employed in the compound. The amount of pH adjuster will depend upon the concentration of the potassium hydrogen alkylhydroxamate salts in aqueous solution. […] […] Target pH levels for the formulations as disclosed herein, e.g., for personal care products and the like, are less than pH 8. Minimal additions of the pH adjuster are required when using potassium hydrogen alkylhydroxamate salt compounds as described herein to achieve the desired pH less than 8.

[3] = Titration of aqueous solutions with 0.1 N HCl; format: physicochemical; conditions: for titration endpoint: 0.24 wt % aqueous solution, 0.1 N HCl
Description: Aqueous solutions (0.24 wt %) of KH(CH)2 and NaCH were prepared by dissolving the respective compounds of Example 1 and Comparative Example 1 in deionized water. The solutions were titrated with 0.1 N HCl solution using a Metrohm autotitrator.

In the case of `CCCCCCCC(=O)NO` [CHA, caprylhydroxamic acid], the pKa [1] is listed as “≈ 9.4”.
With `CCCCCCCC(=O)N[O-].O.[Na+]` [Comparative Example 1, sodium octanohydroxamate monohydrate, reference compound] the “Solution pH” value ([2]; 0.15 % in deionized water) was 10.26, the “Solution pH” value ([2]; 0.25 % in deionized water) was 10.85 and the “Solution pH” value ([2]; 0.50 % in deionized water) was 10.95. The “pH value in a 1% aqueous solution” value [2] was 11.0-11.5, the “Solution pH” value ([2]; 1.00 % in deionized water) was 11.10 and the titration endpoint [3] was 18.4 mL.
In the case of `CCCCCCCC(=O)NO.[K]` [Example 1, potassium hydrogen caprylhydroxamate], the “Solution pH” value ([2]; 0.15 % in deionized water) is reported as 9.35, the “Solution pH Difference” value ([2]; 0.15 %) is reported as 0.91 and the “Solution pH” value ([2]; 0.25 % in deionized water) is reported as 9.64. For the same compound, the “Solution pH Difference” value ([2]; 0.25 %) was 1.21, the “Solution pH” value ([2]; 0.50 % in deionized water) was 9.60 and the “Solution pH Difference” value ([2]; 0.50 %) was 1.35. The “pH value in a 1% aqueous solution” value [2] was 9.0-10.0, the “Solution pH” value ([2]; 1.00 % in deionized water) was 9.58 and the “Solution pH Difference” value ([2]; 1.00 %) was 1.52. The titration endpoint [3] was 10.7 mL and the “less acid required to neutralize vs NaCH solution” value ([3]; identical concentration 0.24 wt %) was “approximately 42%”.
